Assay results published in ChEMBL document CHEMBL5104169, “Design and synthesis of mogrol derivatives modified on a ring with anti-inflammatory and anti-proliferative activities” (Bioorg Med Chem Lett, 2022).

How the values were obtained:
A549 = experiment: Antiproliferative activity against human A549 cells; format: functional, cell-based
NCI-H1299 = experiment: Antiproliferative activity against human NCI-H1299 cells; format: functional, cell-based
NCI-H460 = experiment: Antiproliferative activity against human NCI-H460 cells; format: functional, cell-based
[1] = Cytotoxicity against mouse RAW264.7 cells assessed as cell viability at 10 uM measured after 24 hrs by CCK-8 assay relative to control; format: toxicity, cell-based; settings: read-out: Activity
NCI-H1975 = experiment: Antiproliferative activity against human NCI-H1975 cells; format: functional, cell-based
RAW264.7 [2] = experiment: Cytotoxicity against mouse RAW264.7 cells at 10 uM measured after 24 hrs by CCK-8 assay relative to control; format: toxicity, cell-based; settings: raw264.7, 24 h
RAW264.7 [3] = experiment: Inhibition of LPS-induced NO production in mouse RAW264.7 cells at 10 uM relative to control; format: functional
RAW264.7 [4] = experiment: Inhibition of LPS-induced NO production in mouse RAW264.7 cells at 5 uM relative to control; format: functional

Structure (SMILES) | IC50 (A549) [µM] | IC50 (NCI-H1299) [µM] | IC50 (NCI-H460) [µM] | viability at 24 h, 10 µM [1] [%] | IC50 (NCI-H1975) [µM] | Activity (RAW264.7 [2]) | inhibition at 10 µM (RAW264.7 [3]) [%] | inhibition at 5 µM (RAW264.7 [4]) [%]
C[C@H](CC[C@@H](O)C(C)(C)O)[C@H]1CC[C@@]2(C)[C@@H]3CC=C4[C@@H](Cc5c([nH]c6ccccc56)C4(C)C)[C@]3(C)[C@H](O)C[C@]12C | 16.4 | 22.4 | 18.3 | > 95 | 23.2 | – | – | –
C[C@H](CC[C@@H](O)C(C)(C)O)[C@H]1CC[C@@]2(C)[C@@H]3CC=C4[C@@H](C/C(=C\c5cccnc5)C(=O)C4(C)C)[C@]3(C)[C@H](O)C[C@]12C | 11.1 | 14.6 | 11.1 | – | 13.4 | Toxic | – | –
C[C@H](CC[C@@H](O)C(C)(C)O)[C@H]1CC[C@@]2(C)[C@@H]3CC=C4[C@@H](CC[C@H](O)C4(C)C)[C@]3(C)[C@H](O)C[C@]12C [MOGROL] | 28.6 | > 100 | > 100 | – | 87.1 | – | 17.4 | –
C[C@H](CC[C@@H](O)C(C)(C)O)[C@H]1CC[C@@]2(C)[C@@H]3CC=C4[C@@H](C/C(=C\c5cccnc5)C(=O)C4(C)C)[C@]3(C)C(=O)C[C@]12C | 12.6 | 16.4 | 16.5 | – | 12.7 | Toxic | – | –
C[C@H](CC[C@@H](O)C(C)(C)O)[C@H]1CC[C@@]2(C)[C@@H]3CC=C4[C@@H](Cc5c([nH]c6ccc(Cl)cc56)C4(C)C)[C@]3(C)[C@H](O)C[C@]12C | > 30 | 19.1 | 23.1 | > 95 | 18.5 | – | – | –
Cc1ccc2[nH]c3c(c2c1)C[C@@H]1C(=CC[C@@H]2[C@@]1(C)C(=O)C[C@]1(C)[C@@H]([C@H](C)CC[C@@H](O)C(C)(C)O)CC[C@@]21C)C3(C)C | 16.5 | 18.7 | > 30 | – | > 30 | – | 56.6 | –
C[C@H](CC[C@@H](O)C(C)(C)O)[C@H]1CC[C@@]2(C)[C@@H]3CC=C4[C@@H](C/C(=C\c5ccc(Cl)cc5)C(=O)C4(C)C)[C@]3(C)[C@H](O)C[C@]12C | 8.26 | > 30 | 9.94 | – | 13.6 | Toxic | – | –
C[C@H](CC[C@@H](O)C(C)(C)O)[C@H]1CC[C@@]2(C)[C@@H]3CC=C4[C@@H](Cc5c([nH]c6ccccc56)C4(C)C)[C@]3(C)C(=O)C[C@]12C | 27.9 | > 30 | > 30 | – | > 30 | – | 78.2 | –
C[C@H](CC[C@@H](O)C(C)(C)O)[C@H]1CC[C@@]2(C)[C@@H]3CC=C4[C@@H](Cc5cc6cc(Cl)ccc6nc5C4(C)C)[C@]3(C)[C@H](O)C[C@]12C | 8.22 | 13.2 | 19 | – | 16.4 | Toxic | – | –
CC(C)c1ccc2[nH]c3c(c2c1)C[C@@H]1C(=CC[C@@H]2[C@@]1(C)C(=O)C[C@]1(C)[C@@H]([C@H](C)CC[C@@H](O)C(C)(C)O)CC[C@@]21C)C3(C)C | 22.2 | > 30 | > 30 | – | > 30 | – | 57.4 | –
C=C1C(=O)O[C@@H]2C3O[C@]3(C)CC/C=C(\C)CC[C@@H]12 (some centres undefined) | – | – | – | – | – | – | – | 91.9
Cc1ccc2[nH]c3c(c2c1)C[C@@H]1C(=CC[C@@H]2[C@@]1(C)[C@H](O)C[C@]1(C)[C@@H]([C@H](C)CC[C@@H](O)C(C)(C)O)CC[C@@]21C)C3(C)C | 22.6 | > 30 | 31.5 | – | > 30 | – | 45.1 | –
C[C@H](CC[C@@H](O)C(C)(C)O)[C@H]1CC[C@@]2(C)[C@@H]3CC=C4[C@@H](C/C(=C\c5ccccc5)C(=O)C4(C)C)[C@]3(C)[C@H](O)C[C@]12C | 10.7 | 12 | 16 | – | 13.6 | Toxic | – | –
C[C@H](CC[C@@H](O)C(C)(C)O)[C@H]1CC[C@@]2(C)[C@@H]3CC=C4[C@@H](C/C(=C\c5ccncc5)C(=O)C4(C)C)[C@]3(C)[C@H](O)C[C@]12C | 11.6 | 13.3 | 15 | – | 12.7 | Toxic | – | –
C[C@H](CC[C@@H](O)C(C)(C)O)[C@H]1CC[C@@]2(C)[C@@H]3CC=C4[C@@H](C/C(=C\c5ccccc5)C(=O)C4(C)C)[C@]3(C)C(=O)C[C@]12C | 16.1 | > 30 | 32.5 | – | > 30 | Toxic | – | –
C[C@H](CC[C@@H](O)C(C)(C)O)[C@H]1CC[C@@]2(C)[C@@H]3CC=C4[C@@H](Cc5cc6ccncc6nc5C4(C)C)[C@]3(C)[C@H](O)C[C@]12C | > 30 | > 30 | 23.4 | – | > 30 | Toxic | – | –
Cc1ccc(/C=C2\C[C@@H]3C(=CC[C@@H]4[C@@]3(C)C(=O)C[C@]3(C)[C@@H]([C@H](C)CC[C@@H](O)C(C)(C)O)CC[C@@]43C)C(C)(C)C2=O)cc1 | 22.1 | > 30 | 24.3 | – | 19.1 | Toxic | – | –
O=c1[nH]cc(F)c(=O)[nH]1 [FLUOROURACIL] | 1.65 | 3.53 | – | – | 1.98 | – | – | –
C[C@H](CC[C@@H](O)C(C)(C)O)[C@H]1CC[C@@]2(C)[C@@H]3CC=C4[C@@H](Cc5cc6cc(Br)ccc6nc5C4(C)C)[C@]3(C)[C@H](O)C[C@]12C | 8.99 | 27 | > 30 | – | 25.7 | Toxic | – | –
Cc1ccc(/C=C2\C[C@@H]3C(=CC[C@@H]4[C@@]3(C)[C@H](O)C[C@]3(C)[C@@H]([C@H](C)CC[C@@H](O)C(C)(C)O)CC[C@@]43C)C(C)(C)C2=O)cc1 | 9.91 | > 30 | 13.7 | – | 15.1 | Toxic | – | –
CC(C)c1ccc2[nH]c3c(c2c1)C[C@@H]1C(=CC[C@@H]2[C@@]1(C)[C@H](O)C[C@]1(C)[C@@H]([C@H](C)CC[C@@H](O)C(C)(C)O)CC[C@@]21C)C3(C)C | 25.4 | > 30 | 25 | > 95 | > 30 | – | – | –
C[C@H](CC[C@@H](O)C(C)(C)O)[C@H]1CC[C@@]2(C)[C@@H]3CC=C4[C@@H](Cc5cc6ccccc6nc5C4(C)C)[C@]3(C)[C@H](O)C[C@]12C | 17.2 | 20 | 18.9 | – | 18.7 | Toxic | – | –
C[C@H](CC[C@@H](O)C(C)(C)O)[C@H]1CC[C@@]2(C)[C@@H]3CC=C4[C@@H](Cc5cc6cc(F)ccc6nc5C4(C)C)[C@]3(C)[C@H](O)C[C@]12C | 7.55 | 11.7 | 16.3 | – | 14.7 | Toxic | – | –
